According to patent US9850283B2, “Macrocyclic inhibitors of the PD-1/PD-L1 and CD80(B7-1)/PD-L1 protein/protein interactions” (BRISTOL-MYERS SQUIBB COMPANY, priority 2013, dated 2017):
pIC50: −log10 of the molar value. Where two headings read alike, the source gives them in different places. Values belong to the compound of their own block, whether it stands above or below them. Starred links: 1 amine or outer side, 2 acyl side, 3 side chain; linkers in the order of their positions; H or OH if unused. Positions of bridges follow the written chain, without caps; N, C: chain ends. Non-standard residues stand in square brackets, D forms with d. Residues, ends and D or L forms follow the SMILES beside them. ξ: configuration not given here. ξPro(4S-NH2) = O=C(C1C[C@H](N[*:3])CN1[*:1])[*:2]; Bta = N[C@@H](Cc1csc2ccccc12)C(=O)O; cisHyp = O=C(O)[C@@H]1C[C@H](O)CN1; Hyp = O=C(O)[C@@H]1C[C@@H](O)CN1; ξBta = NC(Cc1csc2ccccc12)C(=O)O; NMeNle = CCCC[C@H](NC)C(=O)O; NMeA = CN[C@@H](C)C(=O)O; Orn = NCCC[C@H](N)C(=O)O; Dab = NCC[C@H](N)C(=O)O; Dap = NC[C@H](N)C(=O)O; Sar = CNCC(=O)O

Key:
Human PD-L1/PD-1 = biological target: T1, Human PD-L1/PD-1 (Homo sapiens, UniProt Q9NZQ7); assay: HTRF PD-1-Ig/PD-L1-His binding assay (human PD-L1); settings: cluster symbol; read-out: HTRF IC50 cluster
T1 construct: made in house; host or cells: HEK293T
T1 sequence (Q9NZQ7 with tags, fused parts or gaps): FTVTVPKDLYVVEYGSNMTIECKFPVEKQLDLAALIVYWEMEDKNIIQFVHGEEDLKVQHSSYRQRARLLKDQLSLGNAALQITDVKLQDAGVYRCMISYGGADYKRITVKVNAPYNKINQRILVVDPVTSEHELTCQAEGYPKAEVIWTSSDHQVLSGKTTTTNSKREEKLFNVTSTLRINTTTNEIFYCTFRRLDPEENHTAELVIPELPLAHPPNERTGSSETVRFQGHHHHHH
Method in brief: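 Steps: truncated PD-1-Ig and PD-L1-His fusions are incubated in dPBS containing 0.1% (w/v) BSA and 0.05% (v/v) Tween-20. Detection antibodies are then added (Eu cryptate anti-Ig at 1 nM final, APC anti-His at 20 nM final), and time-resolved FRET is measured.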

[1] = biological target: T2, LK35.2-hPD-L1 cells / PE-labeled PD-1-Ig (Homo sapiens, UniProt Q9NZQ7); assay: LK35.2-hPD-L1 cell binding high-content screening assay; format: cell-based; settings: cluster symbol, read-out: CBA IC50 cluster
T2 construct: expressed in transfected cells; host or cells: LK35.2 mouse B cell line
T2 sequence (Q9NZQ7 19-290): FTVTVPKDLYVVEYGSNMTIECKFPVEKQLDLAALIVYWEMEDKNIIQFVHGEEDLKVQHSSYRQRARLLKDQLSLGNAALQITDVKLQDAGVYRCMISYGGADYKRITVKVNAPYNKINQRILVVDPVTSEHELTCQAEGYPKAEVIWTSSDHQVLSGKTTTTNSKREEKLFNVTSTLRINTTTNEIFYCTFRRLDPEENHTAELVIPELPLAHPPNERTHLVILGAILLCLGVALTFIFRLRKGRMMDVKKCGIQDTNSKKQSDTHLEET
Method in brief: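 Using overnight-cultured LK35.2-hPD-L1 mouse B cells, compound was co-incubated with phycoerythrin-tagged human PD-1-Ig (final 1 nM) at 37 °C for one hour. Unbound label was removed by triple dPBS washing prior to high-content image acquisition and analysis.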

[2] = cell line of CBA not given (LK35.2-hPD-L1 or 293T-hPD-L1)
[3] = cell binding assay, cell line not given

SMILES: CCCC[C@H]1C(=O)N(C)[C@@H](CCCC)C(=O)N[C@@H](CC(C)C)C(=O)N[C@H](C(=O)NCC(N)=O)CSCC(=O)N[C@@H](Cc2ccc(O)cc2)C(=O)N(C)[C@@H](C)C(=O)N[C@@H](CCN)C(=O)N2CCC[C@H]2C(=O)N[C@@H](Cc2c[nH]cn2)C(=O)N[C@@H](CCC(=O)O)C(=O)N2C[C@H](O)C[C@H]2C(=O)N[C@@H](Cc2c[nH]c3ccccc23)C(=O)N[C@@H](CCN)C(=O)N[C@@H](Cc2c[nH]c3ccccc23)C(=O)N1C [Example 5090] ({CH2CO}-Y[NMeA][Dab]PHE[Hyp]W[Dab]W[NMeNle][NMeNle]LCG-NH2; thioether N-14)
pIC50 (Human PD-L1/PD-1): 8.17 to 9.41 | pIC50 [1, 3]: 7.14 to 8.32

SMILES: CCCC[C@H]1C(=O)N(C)[C@@H](CCCC)C(=O)N[C@@H](CCCNC(=N)N)C(=O)N[C@H](C(=O)NCC(N)=O)CSCC(=O)N[C@@H](Cc2ccccc2)C(=O)N(C)[C@@H](C)C(=O)N[C@@H](CC(N)=O)C(=O)N2CCC[C@H]2C(=O)N[C@@H](Cc2cnc[nH]2)C(=O)N[C@@H](CC(C)C)C(=O)N(C)CC(=O)N[C@@H](Cc2c[nH]c3ccccc23)C(=O)N[C@@H](CCN)C(=O)N[C@@H](Cc2c[nH]c3ccccc23)C(=O)N1C [Example 5001] ({CH2CO}-F[NMeA]NPHL[Sar]W[Dab]W[NMeNle][NMeNle]RCG-NH2; thioether N-14)
pIC50 (Human PD-L1/PD-1): 8.17 to 9.41 | pIC50 [1, 3]: 7.14 to 8.32

SMILES: CCCC[C@H]1C(=O)N(C)[C@@H](CCCC)C(=O)N[C@@H](CCCNC(=N)N)C(=O)N[C@H](C(=O)NCC(N)=O)CSCC(=O)N[C@@H](Cc2ccc(O)cc2)C(=O)N(C)[C@@H](C)C(=O)N[C@@H](CCCCN)C(=O)N2CCC[C@H]2C(=O)N[C@@H](Cc2c[nH]cn2)C(=O)N[C@@H](CC(=O)O)C(=O)N2C[C@H](O)C[C@H]2C(=O)N[C@@H](Cc2c[nH]c3ccccc23)C(=O)N[C@@H](CO)C(=O)N[C@@H](Cc2c[nH]c3ccccc23)C(=O)N1C [Example 5102] ({CH2CO}-Y[NMeA]KPHD[Hyp]WSW[NMeNle][NMeNle]RCG-NH2; thioether N-14)
pIC50 (Human PD-L1/PD-1): 7.52 to 8.17 | pIC50 [1, 3]: 7.14 to 8.32

The next lines start with the values.

pIC50 (Human PD-L1/PD-1): 7.52 to 8.17 | pIC50 [1, 2]: 8.33 to 9.80
SMILES: CCCC[C@H]1C(=O)N(C)[C@@H](CCCC)C(=O)N[C@@H](CCCN)C(=O)N[C@H](C(=O)NCC(N)=O)CSCC(=O)N[C@@H](Cc2ccc(O)cc2)C(=O)N(C)[C@@H](C)C(=O)N[C@@H](CC(N)=O)C(=O)N2CCC[C@H]2C(=O)N[C@@H](Cc2cnc[nH]2)C(=O)N[C@@H](CC(C)C)C(=O)N2C[C@@H](O)C[C@H]2C(=O)N[C@@H](Cc2c[nH]c3ccccc23)C(=O)N[C@@H](CO)C(=O)N[C@@H](Cc2csc3ccccc23)C(=O)N1C [Example 1051] ({CH2CO}-Y[NMeA]NPHL[cisHyp]WS[Bta][NMeNle][NMeNle][Orn]CG-NH2; thioether N-14)

pIC50 (Human PD-L1/PD-1): 8.17 to 9.41 | pIC50 [1, 2]: 8.33 to 9.80
SMILES: CCCC[C@H]1C(=O)N(C)[C@@H](CCCC)C(=O)N[C@@H](CCCN)C(=O)N[C@H](C(=O)NCC(N)=O)CSCC(=O)N[C@@H](Cc2ccc(O)cc2)C(=O)N(C)[C@@H](C)C(=O)N[C@@H](CC(N)=O)C(=O)N2CCC[C@H]2C(=O)N[C@@H](CN)C(=O)N[C@@H](CCC(=O)O)C(=O)N2C[C@H](O)C[C@H]2C(=O)N[C@@H](Cc2c[nH]c3ccccc23)C(=O)N[C@@H](CCN)C(=O)N[C@@H](Cc2csc3ccccc23)C(=O)N1C [Example 1185] ({CH2CO}-Y[NMeA]NP[Dap]E[Hyp]W[Dab][Bta][NMeNle][NMeNle][Orn]CG-NH2; thioether N-14)

pIC50 (Human PD-L1/PD-1): 7.52 to 8.17 | pIC50 [1, 2]: 7.14 to 8.32
SMILES: CCCC[C@H]1C(=O)N(C)[C@@H](CCCC)C(=O)N[C@@H](CCCNC(=N)N)C(=O)N[C@H](C(=O)NCC(N)=O)CSCC(=O)N[C@@H](Cc2ccc(O)cc2)C(=O)N(C)[C@@H](C)C(=O)N[C@@H](CC(N)=O)C(=O)N2C[C@@H](N)CC2C(=O)N[C@@H](Cc2cnc[nH]2)C(=O)N[C@@H](CC(C)C)C(=O)N2CCC[C@H]2C(=O)N[C@@H](Cc2c[nH]c3ccccc23)C(=O)N[C@@H](CO)C(=O)NC(Cc2csc3ccccc23)C(=O)N1C (stereo partly drawn) [Example 1046] ({CH2CO}-Y[NMeA]N[ξPro(4S-NH2)]HLPWS[ξBta][NMeNle][NMeNle]RCG-NH2; thioether N-14)
